Results published in patent publication US20260183393A1, “IMMUNOSUPPRESSANT-RESISTANT MODIFIED ALLOGENEIC MODIFIED IMMUNE CELLS AND METHODS FOR USE THEREOF” (Beam Therapeutics Inc., priority 2023, published 2026).

Experiments:
alloreactive T cells = assay: Mixed leukocyte reaction: priming and proliferation of alloreactive T cells with immunosuppressants; format: cell-based, human; details: for proliferation of alloreactive T cells: CellTrace Violet-labeled T cells with PBMCs from HLA disparate donors, RPM 10^−2 to 10^−4 mg mL^−1, TAC 10^0 to 10^−2 mg mL^−1, relative to VEH; for proliferation of the T cells: rapamycin 0.001 μg/mL or tacrolimus 0.1 μg/mL, HLA-mismatched PBMCs 1:1, day 7, CellTrace dilution
Protocol: Purified primary human T cells (effector cells) from a donor (Donor #1) were labeled with CellTrace™ dye and co-cultured at a 1:1 effector-to-target cell ratio with HLA-mismatched peripheral blood mononuclear cells (PBMCs) from another donor (Donor #2) that were pretreated with mitomycin C to inhibit their growth (mitomycin C inhibits cell growth). The cells were co-cultured in the presence of the immunosuppressant rapamycin (0.001 μg/mL) or tacrolimus (0.1 μg/mL) or in the presence of dimethylsulfoxide (DMSO) in place of any immunosuppressant. The immunosuppressant or DMSO was re-administered to the cultures every 48 hours. On day 7, proliferation was measured as dilution of the CellTrace™ dye assessed using flow cytometry. The numbers at the lower-left of each plot indicate the percent of total cells counted falling within the indicated region.
First, human leukocyte antigen (HLA) mismatched peripheral blood mononuclear cells (PBMCs) from a donor were co-cultured in the presence and absence of an immunosuppressant agents with T cells from a different donor that were labeled using a CellTrace dye for measuring cell proliferation. The peripheral blood mononuclear cells (PBMC) cells were treated with mitomycin C prior to being co-cultured to prevent proliferation of the PBMC cells.
It was first determined if immunosuppressants mitigate the in vitro priming of alloreactive T cells. To do so, peripheral blood mononuclear cells and CellTrace Violet-labeled T cells from HLA disparate donors were cultured in the presence of rapamycin (RPM), tacrolimus (TAC) or vehicle (VEH) control. […] Next, it was tested whether immunosuppressants alleviated in vivo T cell-driven rejection of allogeneic HLA-I CAR-T cells. Five cohorts of human immune system (HIS) mice derived from unrelated human donors were injected daily with RPM, TAC, or VEH for 2 weeks, and at 1-day post-treatment initiation all mice were co-infused with an equal amount of allogeneic HLA^+ and HLA-deficient CAR-T cells (FIG. 16A). Cohorts #3 and #4 also received syngeneic human immune system (HIS) mouse-derived CAR-T cells to control for autologous T cell persistence. […]
For the study described in FIGS. 21A to 21C, CellTrace Violet (Thermo Fisher Scientific) CD3^+ T cells (effectors) and CD3-depleted PBMCs (targets) from HLA disparate donors were cultured in triplicate at a 1:1 ratio in complete medium supplemented with 300 U mL^−1 IL-2. […] Frequency of dividing effector CD8^+ and CD4^+ T cells was measured at day 5 and 7 post-stimulation by flow cytometry.

NK cells = assay: NK cell-mediated lysis of HLA class-I negative T cells with immunosuppressants; format: cell-based, human; details: 10 μg/mL; 4:1 effector-to-target ratio; 48 hours of co-culture
Protocol: The rightmost plots represent the ratio of HLA class-I negative (target cells) and positive T cells in the absence of any NK cells (effector cells) (i.e., a culture with an effector-to-target cell ratio (E:T) of 0:1 because the culture contained no effector cells and only the target cells). Primary human NK cells were activated in vitro with IL-2 and IL-15 cytokines for 72 hours. The activated NK cells were then cultured for 24 hours in the presence of rapamycin (10 μg/mL), tacrolimus (10 μg/mL), or a dimethylsulfoxide (DMSO) control. After the 24 hours, the NK cells were then co-cultured at a 4:1 effector-to-target ratio with an equal mixture of unedited HLA class-I positive (off-target cells) or beta-2-microglobulin (B2M) knock-out (HLA class-I deficient) T cells (target cells) in the presence or absence if the immunosuppressant rapamycin or tacrolimus. T cells co-cultured in the absence of NK cells (0:1 E:T ratio) were used as control. Following 48 hours of co-culture, the frequency of HLA class-I negative and positive T cells was assessed using flow cytometry by immunostaining for pan HLA class-I (ABC). The numbers within each plot indicate the percent of total cells counted falling within the indicated region, where the left regions correspond to HLA class-I negative cells and the right regions correspond to HLA class-I positive cells. […]

Structure (SMILES) | proliferation of alloreactive T cells (alloreactive T cells) | proliferation of the T cells (alloreactive T cells) | NK cell-mediated lysis of HLA class-I negative T cells (NK cells)
CO[C@H]1C[C@@H]2CC[C@@H](C)[C@@](O)(O2)C(=O)C(=O)N2CCCC[C@H]2C(=O)O[C@H]([C@H](C)C[C@@H]2CC[C@@H](O)[C@H](OC)C2)CC(=O)[C@H](C)/C=C(\C)[C@@H](O)[C@@H](OC)C(=O)[C@H](C)C[C@H](C)/C=C/C=C/C=C/1C [rapamycin, Rapamycin] | severely attenuated the proliferation of alloreactive T cells | hindered proliferation of the T cells | attenuated
C=CC[C@@H]1/C=C(\C)C[C@H](C)C[C@H](OC)[C@H]2O[C@@](O)(C(=O)C(=O)N3CCCC[C@H]3C(=O)O[C@H](/C(C)=C/[C@@H]3CC[C@@H](O)[C@H](OC)C3)[C@H](C)[C@@H](O)CC1=O)[C@H](C)C[C@@H]2OC [tacrolimus, Tacrolimus] | severely attenuated the proliferation of alloreactive T cells | hindered proliferation of the T cells | attenuated
